Measured values reported in patent publication US8911952B2, “Method for integrin ligand discovery” (STC. UNM, priority 2010, dated 2014).
Where a name gives a salt, the structure may show the parent alone. Marks after values point to notes of the source that are not given here.

Tests used:
VLA-4 [1] = target: T1, VLA-4 (Homo sapiens, UniProt P05556+P13612); assay: HUTS-21 antibody binding (ligand induced epitope exposure) on U937 cells; assay type: cell-based; set-up: host or cells: U937 (human histiocytic lymphoma); in part of the real-time experiments U937 stably transfected with a non-desensitizing FPR mutant, where VLA-4 itself is endogenous
Protocol: U937 cells were suspended in the HEPES buffer (see above) 1×10^6 cells/ml, 100 μl aliquots (10^5 cells) were incubated with different concentrations of unlabeled compounds for 10 min. Next, 20 μl of PE-labeled HUTS-21 antibodies was added and cells were incubated for additional […] at room temperature. Next, cells were washed with 1 ml of HEPES buffer, resuspended in 300-500 μl of buffer and analyzed by flow cytometry (FL2 channel, BD FACScan). The data were plotted as mean channel fluorescence vs. the concentration of the compound. The data were fitted to a sigmoidal dose-response equation. To determine the level of nonspecific binding, cells were stained in parallel with the isotype control antibodies.

VLA-4 [2] = target: T1, VLA-4; assay: Detection of VLA-4 allosteric antagonists: HUTS-21 binding inhibition screen of the Prestwick Chemical Library
Protocol: 5 μl RPMI was added to columns 2-24. Column 1 was left empty for flow cytometry data binning purposes. Test compounds in DMSO (Prestwick Chemical Library, PCL) were added and mixed (0.1 μl of 1 mM stock solution). […] Compounds were added to 320 wells (columns 3-22). […] Columns 23, 24 were used for the positive control (no test compounds added). Next, 5 μl aliquots of U937 cells were suspended in RPMI 1640 at 3×10^6 cells/ml, loaded in 384 well plates, and mixed (1×10^6 cells/ml final). Cells were incubated for 10 min at RT. This time is sufficient for the binding of a small molecule (˜1 kD) at 10 μM at RT. […] Plates were incubated for 1 hour at 37° C. According to the real-time kinetic studies this time was sufficient to reach equilibrium. Next, wells were sampled using the high throughput flow cytometry platform (HyperCyt) at UNMCMD.
After data acquisition by the flow cytometer (CyAn™ ADP), proprietary software was used to analyze the data files (IDLQuery, at UNMCMD, developed by Bruce Edwards). The data were exported into a Microsoft Excel spreadsheet template, and the value for antibody binding inhibition (%) was calculated for each well as follows: % Inhibition=100(1−((MCFtest−MCFneg.control)/MCFpos.control−MCFneg.control))), where, MCF is mean channel fluorescence of cells with test compounds, and positive or negative control wells.

[3] = system: hematopoietic stem and progenitor cells (HSPCs); assay: Mobilization of hematopoietic stem and progenitor cells into the peripheral blood; settings: mouse; for CFU/ml in peripheral Blood / WBC count/ml × 10^6: intraperitoneal, one hour prior to blood collection, thioridazine hydrochloride 1.25 mg/kg, AMD3100 5 mg/kg, Mean ± S.E.
VLA-4 [4] = target: T1, VLA-4; assay: Real-time binding of HUTS-21 antibodies to U937 cells; assay type: cell-based; set-up: host or cells: U937 (human histiocytic lymphoma); in part of the real-time experiments U937 stably transfected with a non-desensitizing FPR mutant, where VLA-4 itself is endogenous; settings: 1 nM LDV in the absence of the compound
Protocol: the Ability of a Flow Cytometer to Discriminate between free and bound fluorescent ligand in a homogeneous assay was used to determine the binding kinetics of mAbs in real-time (15; 26). Cells (10^6 cells/ml) were removed from ice and warmed in HEPES buffer containing 0.1% HSA for 10 min at 37° C. […] Screening hits at saturating concentration (10-30 μM final) or DMSO (vehicle) were added at point 0.

[5] = target: VLA-4 (very late antigen 4, CD49d/CD29, alpha4beta1 integrin) (human) (UniProt P13612); assay: flow cytometry on U937 cells, PE-HUTS-21 with rising LDV
LFA-1 = target: T2, LFA-1 (Homo sapiens, UniProt P05107+P20701); assay: Binding of MEM-148 mAbs to U937 cells (epitope exposure); assay type: cell-based
T2 construct: host or cells: U937 (human histiocytic lymphoma)
Excerpt: In order to confirm that similar results can be obtained with other integrins we have constructed a 3D model of αLβ2-integrin (LFA-1, CD11a/CD18). Amino acid residue critical for the binding of MEM-148 mAb to β2-integrin subunit (Pro 374) was highlighted as green space fill (1). This model was compared to the model of β1-integrin subunit, where critical residues (Ser370, Glu371, and Lys417) were highlighted in a similar way (2) (FIG. 8). It is worth noting that critical residues for both mAbs are positioned in a similar way on the inner side of the hybrid domain. Since the outward movement of the hybrid domain, induced by a ligand binding (at least for β1-integrin (2)), can be used to report occupancy of the ligand binding pocket (3), we decided to use MEM-148 mAbs to probe LFA-1 integrin conformation upon ligand binding.
To test this possibility, two αLβ2-integrin ligands were synthesized as described previously. Compound 3 (Genentech) and XVA143 (Roche) are shown to be LFA-1 specific antagonists (4) FIG. 9.

T1 sequence (P13612 34-1032): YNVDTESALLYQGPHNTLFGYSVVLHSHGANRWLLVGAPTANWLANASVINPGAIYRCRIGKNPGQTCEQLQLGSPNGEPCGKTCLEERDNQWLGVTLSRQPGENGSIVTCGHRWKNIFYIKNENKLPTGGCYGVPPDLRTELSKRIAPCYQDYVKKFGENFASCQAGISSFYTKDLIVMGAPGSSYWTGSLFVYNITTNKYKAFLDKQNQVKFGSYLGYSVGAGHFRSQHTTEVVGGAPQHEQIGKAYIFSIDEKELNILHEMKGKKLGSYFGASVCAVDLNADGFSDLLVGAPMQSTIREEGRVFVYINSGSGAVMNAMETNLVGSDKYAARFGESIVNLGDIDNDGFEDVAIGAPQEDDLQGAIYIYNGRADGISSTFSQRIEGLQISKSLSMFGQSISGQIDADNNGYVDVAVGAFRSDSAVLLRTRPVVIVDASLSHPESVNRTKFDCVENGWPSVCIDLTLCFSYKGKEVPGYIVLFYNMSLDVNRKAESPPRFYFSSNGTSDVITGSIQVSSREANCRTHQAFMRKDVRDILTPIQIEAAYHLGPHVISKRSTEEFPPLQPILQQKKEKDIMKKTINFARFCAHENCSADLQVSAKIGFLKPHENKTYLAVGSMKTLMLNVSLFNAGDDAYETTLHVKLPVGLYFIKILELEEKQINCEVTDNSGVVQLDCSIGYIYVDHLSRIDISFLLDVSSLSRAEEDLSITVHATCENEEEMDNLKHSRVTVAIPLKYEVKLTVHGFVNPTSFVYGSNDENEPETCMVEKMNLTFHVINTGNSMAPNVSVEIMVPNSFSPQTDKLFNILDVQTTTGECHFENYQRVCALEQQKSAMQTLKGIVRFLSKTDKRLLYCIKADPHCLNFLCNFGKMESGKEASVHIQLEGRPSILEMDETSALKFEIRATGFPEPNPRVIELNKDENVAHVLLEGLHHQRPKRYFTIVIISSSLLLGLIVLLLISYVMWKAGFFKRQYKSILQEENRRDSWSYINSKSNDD
T1 sequence (P05556 21-798): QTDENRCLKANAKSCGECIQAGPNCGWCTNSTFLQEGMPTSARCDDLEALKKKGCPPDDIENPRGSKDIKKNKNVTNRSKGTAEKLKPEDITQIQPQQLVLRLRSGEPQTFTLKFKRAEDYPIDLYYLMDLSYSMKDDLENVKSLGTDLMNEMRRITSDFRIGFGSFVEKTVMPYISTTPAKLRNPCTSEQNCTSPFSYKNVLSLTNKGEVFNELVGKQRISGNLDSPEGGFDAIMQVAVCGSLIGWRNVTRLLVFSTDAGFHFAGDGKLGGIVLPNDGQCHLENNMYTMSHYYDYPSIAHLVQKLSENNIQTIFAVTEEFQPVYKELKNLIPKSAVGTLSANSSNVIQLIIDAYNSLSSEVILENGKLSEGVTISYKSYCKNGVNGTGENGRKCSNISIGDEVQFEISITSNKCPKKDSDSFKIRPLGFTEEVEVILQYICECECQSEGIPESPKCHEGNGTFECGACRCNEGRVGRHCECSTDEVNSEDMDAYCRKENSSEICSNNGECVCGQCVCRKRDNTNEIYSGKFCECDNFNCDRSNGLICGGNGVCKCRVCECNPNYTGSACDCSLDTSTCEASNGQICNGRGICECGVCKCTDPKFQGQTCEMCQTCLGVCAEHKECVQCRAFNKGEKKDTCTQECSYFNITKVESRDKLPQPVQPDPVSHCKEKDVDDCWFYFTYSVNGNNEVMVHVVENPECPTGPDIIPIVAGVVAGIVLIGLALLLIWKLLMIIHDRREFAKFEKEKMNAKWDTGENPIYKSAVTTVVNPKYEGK
Chain of VLA-4 (very late antigen 4, CD49d/CD29, alpha4beta1 integrin) (human) (P13612 34-1032, chain 1 of 2): as the sequence (P13612 34-1032) above
Chain of VLA-4 (very late antigen 4, CD49d/CD29, alpha4beta1 integrin) (human) (P05556 21-798, chain 2 of 2, further chain): as the sequence (P05556 21-798) above
T2 sequence (P20701 26-1170): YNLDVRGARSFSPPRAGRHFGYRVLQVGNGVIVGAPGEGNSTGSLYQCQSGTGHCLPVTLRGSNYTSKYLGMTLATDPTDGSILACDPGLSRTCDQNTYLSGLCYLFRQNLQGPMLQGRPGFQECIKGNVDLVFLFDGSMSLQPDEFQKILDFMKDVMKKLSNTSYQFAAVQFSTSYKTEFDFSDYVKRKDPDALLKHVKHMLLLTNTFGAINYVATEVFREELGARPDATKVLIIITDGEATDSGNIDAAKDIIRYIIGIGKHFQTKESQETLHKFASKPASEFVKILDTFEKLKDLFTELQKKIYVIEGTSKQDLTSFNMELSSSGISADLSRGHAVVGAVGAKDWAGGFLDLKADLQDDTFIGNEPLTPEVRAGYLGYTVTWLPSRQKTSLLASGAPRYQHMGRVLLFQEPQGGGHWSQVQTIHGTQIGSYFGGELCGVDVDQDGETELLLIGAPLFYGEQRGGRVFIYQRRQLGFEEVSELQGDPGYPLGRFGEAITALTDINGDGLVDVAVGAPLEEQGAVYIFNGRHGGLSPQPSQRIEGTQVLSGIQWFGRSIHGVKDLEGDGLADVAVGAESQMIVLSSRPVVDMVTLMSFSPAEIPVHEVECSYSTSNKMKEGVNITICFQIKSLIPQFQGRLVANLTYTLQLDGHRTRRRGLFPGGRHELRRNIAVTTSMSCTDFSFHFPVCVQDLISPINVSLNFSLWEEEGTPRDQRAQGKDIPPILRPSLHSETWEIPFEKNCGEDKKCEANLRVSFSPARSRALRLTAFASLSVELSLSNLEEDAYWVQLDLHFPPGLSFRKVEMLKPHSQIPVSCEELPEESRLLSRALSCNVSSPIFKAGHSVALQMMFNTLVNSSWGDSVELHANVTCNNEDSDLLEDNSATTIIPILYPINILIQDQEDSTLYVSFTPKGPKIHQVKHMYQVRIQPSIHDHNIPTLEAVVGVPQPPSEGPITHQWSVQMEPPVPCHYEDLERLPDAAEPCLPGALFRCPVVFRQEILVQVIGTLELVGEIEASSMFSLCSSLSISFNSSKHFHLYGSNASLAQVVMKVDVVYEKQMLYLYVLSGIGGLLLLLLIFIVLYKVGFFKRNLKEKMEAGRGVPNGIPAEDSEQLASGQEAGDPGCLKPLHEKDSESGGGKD
T2 sequence (P05107 23-769): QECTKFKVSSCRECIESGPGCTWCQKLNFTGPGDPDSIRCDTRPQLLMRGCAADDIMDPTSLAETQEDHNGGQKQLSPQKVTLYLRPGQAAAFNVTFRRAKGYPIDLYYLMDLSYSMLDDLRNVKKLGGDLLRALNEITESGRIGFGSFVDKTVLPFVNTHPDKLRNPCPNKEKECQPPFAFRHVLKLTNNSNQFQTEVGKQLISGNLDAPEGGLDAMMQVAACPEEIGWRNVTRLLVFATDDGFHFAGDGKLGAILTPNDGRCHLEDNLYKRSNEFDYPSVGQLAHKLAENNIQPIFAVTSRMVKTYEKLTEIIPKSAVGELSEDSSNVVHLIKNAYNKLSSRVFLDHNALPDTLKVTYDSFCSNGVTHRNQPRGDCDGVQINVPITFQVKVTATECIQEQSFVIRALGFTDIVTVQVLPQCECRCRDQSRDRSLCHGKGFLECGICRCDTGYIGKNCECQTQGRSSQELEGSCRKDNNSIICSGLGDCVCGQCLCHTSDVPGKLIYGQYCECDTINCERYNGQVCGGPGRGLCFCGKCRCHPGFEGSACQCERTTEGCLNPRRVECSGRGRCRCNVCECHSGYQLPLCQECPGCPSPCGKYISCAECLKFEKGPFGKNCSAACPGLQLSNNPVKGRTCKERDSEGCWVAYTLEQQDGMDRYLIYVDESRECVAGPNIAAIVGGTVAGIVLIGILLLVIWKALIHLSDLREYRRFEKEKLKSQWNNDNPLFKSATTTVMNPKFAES

Compound: COc1cccc(OC)c1-c1ccc(C[C@H](NC(=O)c2c(Cl)cccc2Cl)C(=O)O)cc1 [TR14035, N-(2,6-dichlorobenzoyl)-(L)-4-(2′,6′-bis-methoxyphenyl)phenylalanine]
- LIBS (HUTS-21 epitope) exposure (VLA-4 [1]): resulted in the LIBS exposure

Compound: CCN(CC)CCNC(=O)c1cc(Cl)c(N)cc1OC [metoclopramide]
- antagonistic activity in the HUTS-21 based screen (VLA-4 [2]): did not show any antagonistic activity

Compound: CCN1CCCC1CNC(=O)c1cc(S(N)(=O)=O)ccc1OC (stereo not drawn) [sulpiride]
- antagonistic activity in the HUTS-21 based screen (VLA-4 [2]): did not show any antagonistic activity

Compound: CSc1ccc2c(c1)N(CCC1CCCCN1C)c1ccccc1S2 (stereo not drawn) [Thioridazine, Thioridazine hydrochloride]
- CFU/ml in peripheral Blood [3]: 216.8 ± 42.1 CFU/ml
- WBC count/ml × 10^6 [3]: 3.0 ± 0.3 count/ml × 10^6

Compound: OCCN1CCN(CCCN2c3ccccc3Sc3ccc(Cl)cc32)CC1 [perphenazine]
- LDV concentration required to induce HUTS-21 binding in the presence of the compound (VLA-4 [4]): 0.1 µM

Compound: c1cc(CN2CCCNCCNCCCNCC2)ccc1CN1CCCNCCNCCCNCC1 [AMD3100, AMD3100 octahydrochloride]
- WBC count increase ([3]; AMD3100 5 mg/kg intraperitoneal, versus vehicle): ~2.1 fold
- CFU/ml in peripheral Blood [3]: 511.8 ± 78.8^a CFU/ml
- WBC count/ml × 10^6 [3]: 7.8 ± 0.7^b count/ml × 10^6

Compound: O=C(CCCN1CCC(O)(c2ccc(Cl)cc2)CC1)c1ccc(F)cc1 [haloperidol]
- antagonistic activity in the HUTS-21 based screen (VLA-4 [2]): did not show any antagonistic activity

Compound: Mouse anti-human CD29, HUTS-21 (PE) (antibody)
- signal to background ratio [5]: 10

Compound: O=C(NCc1cccc(O)c1)c1cc(Cl)c(C(=O)N[C@@H](CNC(=O)c2cc(O)cc(O)c2)C(=O)O)c(Cl)c1 [XVA143]
- exposure of MEM-148 epitope (LFA-1): induced exposure of MEM-148 epitope
